According to US20230165922A1, “APPLICATION OF RADIX GENTIANAE MACROPHYLLAE AND MONOMER COMPOUND THEREOF IN KILLING MITES” (SMILEBIOTECK ZHUHAI LIMITED, priority 2020, published 2023):

Tests used:
[1] = system: D.folliculorum; experiment: Preliminary in-vitro screening of monomer compounds for effect on survival time of Demodex mites; settings: 20° C., humidity 96%; for Survival time (hours) of D.folliculorum in vitro: 35 µL monomer compound solution in 10% DMSO, observed every 2 hours, mean ± SD
Source text: The names and molecular formulas of the monomer compounds are shown in the following table: The monomer compounds were purchased from Chengdu Herbpurify Co., Ltd., and were standard references.
The powders of the monomer compounds shown in Table 2 were separately dissolved in dimethyl sulfoxide (DMSO), and then diluted with sterilized double-distilled water to make the final concentration of DMSO 10%, which could not shorten the survival time of Demodex mites as per a controlled study. The negative control group received DMSO mixed with sterilized water at a final concentration of 10%.
As in Example 1, 35 µL of each solution was added to a glass slide, and the survival of the mites was observed under an optical microscope every 2 hours. During the experiment, the Demodex mites were observed by two skilled operators separately for the activities (bodies, limbs and the like) through the microscope to determine whether they were dead or not. If the two operators gave different results, the survival status was determined independently by a third skilled operator. The in-vitro culture was conducted in a climatic chamber at a temperature of 20° C. and a humidity of 96%. During the observation, the glass slides were transported in a wet box to ensure the high humidity.
In this experiment, statistical analysis was conducted using SPSS22.0 statistical software, normality test was conducted using Shapiro-Wilk test, and homogeneity of variance test was conducted using Bartlett’s test.
Effects of monomer compounds of traditional Chinese medicine on survival time of D.folliculorum The in-vitro culture of the Demodex mites was conducted in an environment at a humidity of 96% and a temperature of 20° C. The survival of the Demodex mites was observed dynamically and the survival time was recorded.

[2] = system: D.folliculorum; experiment: In-vitro culture of Demodex mites with traditional Chinese medicine decoctions (survival time); settings: 20° C., humidity 96%
Protocol: The ethical guidelines of “The Declaration of Helsinki” and “Measures for the Ethical Review of Biomedical Research Involving Humans” were strictly followed in this study. Demodex mites from patients diagnosed with ocular Demodex infestation were collected in this study. Subjects who met the inclusion criteria were enrolled after giving an informed conversation and signing an informed consent.
The detection of Demodex mites was performed according to the conventional method of eyelash microscopy (12,20). 3 eyelashes were collected from each eyelid, with a total of 12 eyelashes. […] Demodex mites in all periods were counted and classified according to morphology (specific standard: D.brevis with a head-to-body ratio of 1:1, and D.folliculorum with a head-to-body ratio of 1:3 to 1:4). […]
On the basis of the above detection of Demodex mites, 35 µL of the solutions was separately added to the slides, and the survival of the mites was observed every 2 hours. […] If the two operators gave different results, the survival status was determined independently by a third skilled operator. […]
60 g of dried ready-to-use forms was weighed using an electronic balance, and soaked in water with an amount of 10 times (600 mL) in a marmite overnight. […]

With `C=C[C@@H]1C2=CCOC(=O)C2=CO[C@H]1O[C@@H]1O[C@H](CO)[C@@H](O)[C@H](O)[C@H]1O` [Gentiopicroside] the “Survival time (hours) of D.folliculorum in vitro” value (shortened to “Survival time (hours)”) [1] was 37.31 ± 36.06 h, the “Survival time (hours)” value ([1]; listed as gentiopicroside) was 37.31 ± 36.06 h and the “Effect on in-vitro survival time of Demodex mites versus 10% DMSO negative control” value ([1]; compared with 10% DMSO solution) was “significantly shorter”.

For `C[C@@H]1[C@H]2[C@H](O[C@@H]3O[C@H](CO)[C@@H](O)[C@H](O)[C@H]3O)OC=C(C(=O)O)[C@H]2C[C@@H]1O` [Loganic acid], the “Survival time (hours)” value [1] was 61.56 ± 22.84 h.

In the case of `COC(=O)c1c2c(c3ccccc3c1O)OC(C)(C)C=C2` [Mollugin], the “Survival time (hours)” value [1] is reported as 61.10 ± 25.12 h.

With `C=C(C)[C@@H]1CC[C@]2(C)[C@H](CC=C3[C@@H]4[C@@H](C)[C@H](C)CC[C@]4(C)CC[C@]32C)[C@@]1(C)CCC(=O)O` [Roburic acid] the “Survival time (hours)” value [1] was 63.41 ± 12.20 h.

With `COc1cc2ccc(=O)oc2cc1O` [Scopoletin] the “Survival time (hours)” value [1] was 54.67 ± 25.66 h.

In the case of `C=C[C@H]1[C@H](O[C@@H]2O[C@H](CO)[C@@H](O)[C@H](O)[C@H]2O)OC=C2C(=O)OCC[C@H]21` [Sweroside], the “Survival time (hours)” value [1] is reported as 60.79 ± 25.98 h.

For `C=C[C@H]1[C@H](O[C@@H]2O[C@H](CO)[C@@H](O)[C@H](O)[C@H]2O)OC=C2C(=O)OCC[C@]21O` [Swertiamarin], the “Survival time (hours)” value [1] was 59.68 ± 10.97 h.

For `CC1=CCC(O)(C(C)C)CC1` (centres unmarked) [T40, terpinen-4-ol], the “Survival time (hours)” value ([2]; 35 µL solution on slide, decoctions of 60 g medicine made up to 100 mL water, TTO and T4O 10% in sterilized water, observed every 2 hours, mean ± SD) was 40.50 ± 13.12 h and the “Difference in in-vitro survival time of Demodex mites versus control groups (statistical comparison)” value ([2]; Bonferroni comparison with negative control sterilized water (and TTO, T40 groups)) was “did not show significant differences”.
